The NIST ThermoML archive (doi:10.1016/j.jct.2008.07.009)
Numbers after ± are expanded uncertainties.

Details: 101.33 kPa, Liquid, Vibrating tube method

With `Cc1cc(C)cc(C)c1` [1,3,5-trimethylbenzene] the mass density (293.15 K) was 865.1 ± 6 kg/m3, the mass density (303.15 K) was 856.9 ± 6 kg/m3 and the mass density (313.15 K) was 842.8 ± 6 kg/m3. The mass density (323.15 K) was 834.7 ± 6 kg/m3, the mass density (333.15 K) was 826.6 ± 6 kg/m3 and the mass density (343.15 K) was 818.5 ± 6 kg/m3.
`c1ccccc1` [benzene] gave a mass density (293.15 K) of 878.9 ± 6 kg/m3, a mass density (303.15 K) of 868.2 ± 6 kg/m3 and a mass density (313.15 K) of 857.4 ± 6 kg/m3. It also gave a mass density (323.15 K) of 846.5 ± 6 kg/m3, a mass density (333.15 K) of 835.7 ± 6 kg/m3 and a mass density (343.15 K) of 824.7 ± 6 kg/m3.
Molecule `Cc1ccccc1` [toluene] has a mass density (293.15 K) of 866.8 ± 6 kg/m3, a mass density (303.15 K) of 857.5 ± 6 kg/m3 and a mass density (313.15 K) of 848.8 ± 6 kg/m3. The mass density (323.15 K) was 838.9 ± 6 kg/m3, the mass density (333.15 K) was 829.6 ± 6 kg/m3 and the mass density (343.15 K) was 820.2 ± 6 kg/m3.
With `CCc1ccccc1` [ethylbenzene] the mass density (293.15 K) was 867.2 ± 6 kg/m3, the mass density (303.15 K) was 858.3 ± 6 kg/m3 and the mass density (313.15 K) was 849.3 ± 6 kg/m3. For the same molecule, the mass density (323.15 K) was 840.3 ± 6 kg/m3, the mass density (333.15 K) was 831.2 ± 6 kg/m3 and the mass density (343.15 K) was 822.1 ± 6 kg/m3.
In the case of `CC(=O)N1CCOCC1` [4-acetylmorpholine], the mass density (293.15 K) is reported as 1113.8 ± 6.1 kg/m3, the mass density (303.15 K) is reported as 1105.9 ± 6.1 kg/m3 and the mass density (313.15 K) is reported as 1097.3 ± 6.1 kg/m3. For the same molecule, the mass density (323.15 K) was 1088.7 ± 6.1 kg/m3, the mass density (333.15 K) was 1080.1 ± 6.1 kg/m3 and the mass density (343.15 K) was 1071.5 ± 6.1 kg/m3.
